Reference: patent US8067447B2, “Modulators of glucocorticoid receptor, AP-1, and/or NF-κB activity and use thereof” (Bristol-Myers Squibb Company, priority 2006, dated 2011)
Read-outs that look alike come from different tables or passages of the source.

Tests used:
[1] = target: T1, human full-length glucocorticoid receptor (Homo sapiens, UniProt P04150); assay: Glucocorticoid Receptor Binding Assay (II), fluorescence polarization competitor kit (Fluormone GS1); details: cell lysate with recombinant human full-length GR, 1 nM Fluormone GS1, FP
T1 construct: a cell lysate containing recombinantly expressed human full-length glucocorticoid receptor; purchased PanVera Co., Madison, Wis; P2816
T1 sequence (P04150 1-777): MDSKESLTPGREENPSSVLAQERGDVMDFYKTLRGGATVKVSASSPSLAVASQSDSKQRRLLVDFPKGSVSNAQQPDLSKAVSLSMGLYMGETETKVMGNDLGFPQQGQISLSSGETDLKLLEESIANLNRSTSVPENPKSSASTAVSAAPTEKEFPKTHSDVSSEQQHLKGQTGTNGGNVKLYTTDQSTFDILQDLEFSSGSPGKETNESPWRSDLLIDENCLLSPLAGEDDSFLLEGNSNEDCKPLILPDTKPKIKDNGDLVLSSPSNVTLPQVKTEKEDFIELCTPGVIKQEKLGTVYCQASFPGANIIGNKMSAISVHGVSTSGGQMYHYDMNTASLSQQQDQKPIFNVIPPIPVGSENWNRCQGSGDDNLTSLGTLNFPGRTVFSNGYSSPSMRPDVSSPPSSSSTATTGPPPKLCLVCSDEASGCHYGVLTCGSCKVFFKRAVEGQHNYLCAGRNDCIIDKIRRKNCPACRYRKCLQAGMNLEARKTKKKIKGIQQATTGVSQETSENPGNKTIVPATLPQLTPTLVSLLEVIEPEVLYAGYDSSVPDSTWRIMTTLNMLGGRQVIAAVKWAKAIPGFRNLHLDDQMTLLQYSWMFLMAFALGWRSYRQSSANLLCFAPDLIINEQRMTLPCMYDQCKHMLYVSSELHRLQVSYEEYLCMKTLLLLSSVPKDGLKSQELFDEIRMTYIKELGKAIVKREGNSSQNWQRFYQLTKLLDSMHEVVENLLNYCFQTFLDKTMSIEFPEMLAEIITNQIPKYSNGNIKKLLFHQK
Description: In order to measure the binding of compounds on the glucocorticoid receptor a commercially available kit was used (Glucocorticoid receptor competitor assay kit, PanVera Co., Madison, Wis., P2816). Briefly, a cell lysate containing recombinantly expressed human full-length glucocorticoid receptor was mixed with a fluorescently labeled glucocorticoid (1 nM Fluormone GS1) in the presence or absence of test compound. After one hour at room temperature, the fluorescence polarization (FP) of the samples were measured.

[2] = system: AP-1 induced transcriptional activity; assay: Cellular Transrepressional Assay (AP-1 luciferase reporter in A549 cells, PMA-activated); format: cell-based; details: A549 cells with 7x AP-1 luciferase reporter, 10 ng/ml PMA, read-out: AP-1 (EC50, nM) (Cellular Transrepression Assay)
Outline: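 Test molecules spanning 0.1 nM to 40 μM were co-incubated 7 h with 10 ng/ml PMA in A549 cells stably carrying a 7× AP-1-driven luciferase plasmid. Repression, as % reduction of PMA-alone luminescence measured 10 min after reagent addition, was curve-fitted to give EC50s.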

`CN(C)C(=O)Nc1cc(F)ccc1-n1ncc2cc([C@H](c3ccccc3)C(C)(C)C(=O)Nc3nncs3)ccc21` [Example 160, (3S)-3-(1-(2-(3,3-Dimethylureido)-4-fluorophenyl)-1H-indazol-5-yl)-2,2-dimethyl-3-phenyl-N-(1,3,4-thiadiazol-2-yl)propanamide] showed a Ki [1] of 25 nM and an EC50 ([2]; Homo sapiens, A549, 7 h) of 234 nM.
Work on `Cc1ccc(C(c2ccc3c(cnn3-c3ccc(F)cc3)c2)C(C)(C)C(=O)Nc2nncs2)cc1` (stereo not shown) [Example 51, 3-(1-(4-fluorophenyl)-1H-indazol-5-yl)-2,2-dimethyl-N-(1,3,4-thiadiazol-2-yl)-3-p-tolylpropanamide] yielded a Ki [1] of 1.8 nM and an EC50 ([2]; Homo sapiens, A549, 7 h) of 3.9 nM.
For `O=C(Nc1nncs1)C(c1ccccc1)C(c1ccccc1)c1ccc2c(cnn2-c2ccc(F)cc2)c1` (single isomer, unassigned) [Example 145-isomerD, 3-(1-(4-fluorophenyl)-1H-indazol-5-yl)-2,3-diphenyl-N-(1,3,4-thiadiazol-2-yl)propanamide], the Ki [1] was 2.4 nM and the EC50 ([2]; 7 hours) was 45 nM.
`CC(C)(C(=O)NC1CCCC1O)C(Cc1ccccc1)c1ccc2c(cnn2-c2ccc(F)cc2)c1` (single isomer, unassigned) [Example 124-isomerB] was tested, and the Ki [1] was 2.3 nM and the EC50 ([2]; 7 hours) was over 10000 nM.
Work on `CC(C)(C(=O)Nc1nccs1)C(Cc1ccccc1)c1ccc2c(cnn2-c2ccc(F)cc2)c1` (stereo not shown) [Example 138, 3-(1-(4-Fluorophenyl)-1H-indazol-5-yl)-2,2-dimethyl-4-phenyl-N-(thiazol-2-yl)butanamide] yielded a Ki [1] of 1.9 nM and an EC50 ([2]; Homo sapiens, A549, 7 h) of 223 nM.
Work on `CC(C)(CO)CNC(=O)C(C)(C)C(Cc1ccccc1)c1ccc2c(cnn2-c2ccc(F)cc2)c1` (stereo not shown) [Example 134, 3-(1-(4-fluorophenyl)-1H-indazol-5-yl)-N-(3-hydroxy-2,2-dimethylpropyl)-2,2-dimethyl-4-phenylbutanamide] yielded a Ki [1] of 6 nM and an EC50 ([2]; Homo sapiens, A549, 7 h) of over 10000 nM.
In the case of `CC(C(=O)Nc1nncs1)C(c1ccccc1)c1ccc2[nH]ncc2c1` (single isomer, unassigned) [151-diast A, 3-(1H-Indazol-5-yl)-2-methyl-3-phenyl-N-(1,3,4-thiadiazol-2-yl)propanamide], the Ki [1] was 1.6 nM and the EC50 ([2]; 7 hours) was 9 nM.
`CC(C)(C(=O)NC1CCCC1O)C(Cc1ccccc1)c1ccc2c(cnn2-c2ccc(F)cc2)c1` (single isomer, unassigned) [Example 124-isomerA] showed a Ki [1] of 7.5 nM and an EC50 ([2]; 7 hours) of over 10000 nM.
With `CC(C)(C(=O)NC1CCNCC1)C(Cc1ccccc1)c1ccc2c(cnn2-c2ccc(F)cc2)c1` (stereo not shown) [Example 133, 3-(1-(4-fluorophenyl)-1H-indazol-5-yl)-2,2-dimethyl-4-phenyl-N-(piperidin-4-yl)butanamide] the Ki [1] was 153 nM and the EC50 ([2]; Homo sapiens, A549, 7 h) was over 10000 nM.
Compound `COC(=O)c1ccc(C(c2ccc3c(cnn3-c3ccc(F)cc3)c2)C(C)C(=O)Nc2nncs2)cc1` (stereo not shown) [Example 153, Methyl 4-(3-(1,3,4-thiadiazol-2-ylamino)-1-(1-(4-fluorophenyl)-1H-indazol-5-yl)-2-methyl-3-oxopropyl)benzoate] has a Ki [1] of 4.3 nM and an EC50 ([2]; Homo sapiens, A549, 7 h) of 27 nM.
Compound `CC(C)(C(=O)NC1CCCC1)C(Cc1ccccc1)c1ccc2c(cnn2-c2ccc(F)cc2)c1` (single isomer, unassigned) [Example 131, N-cyclopentyl-3-(1-(4-fluorophenyl)-1H-indazol-5-yl)-2,2-dimethyl-4-phenylbutanamide] has a Ki [1] of 3 nM and an EC50 ([2]; 7 hours) of over 10000 nM.
Compound `Cc1ccc(CC(c2ccc3c(cnn3-c3ccc(F)cc3)c2)C(C)(C)C(=O)NC2CCCC2O)cc1` (stereo not shown) [Example 125, 3-(1-(4-fluorophenyl)-1H-indazol-5-yl)-N-(2-hydroxycyclopentyl)-2,2-dimethyl-4-p-tolylbutanamide] has a Ki [1] of 9.9 nM and an EC50 ([2]; Homo sapiens, A549, 7 h) of over 10000 nM.
`CC(C)(C(=O)Nc1nncs1)C(OCc1ccccc1)c1ccc2c(cnn2-c2ccc(F)cc2)c1` (stereo not shown) [Example 140, 3-(Benzyloxy)-3-(1-(4-fluorophenyl)-1H-indazol-5-yl)-2,2-dimethyl-N-(1,3,4-thiadiazol-2-yl)propanamide] gave a Ki [1] of 1.6 nM and an EC50 ([2]; Homo sapiens, A549, 7 h) of 4 nM.
With `Cc1cc2c(cnn2-c2ccc(F)cc2)cc1CC(C)(C)C(=O)Nc1nncs1` [Example 105] the Ki [1] was 5.6 nM and the EC50 ([2]; Homo sapiens, A549, 7 h) was 1.9 nM.
